In paper PMC6155752, “Synthesis of 16 New Hybrids from Tetrahydropyrans Derivatives and Morita-Baylis-Hillman Adducts: In Vitro Screening against Leishmania donovani” (Molecules : A Journal of Synthetic Chemistry and Natural …, 2017):
Values joined by “and” are separate entries in the source; they are usually repeats but may differ in a detail not shown here. Equal entries are not always repeated. Where two headings read alike, the source gives them in different places.

Key:
[1] = tested on: promastigotes of Leishmania donovani; test: Effect on promastigotes of Leishmania donovani (MTT viability assay, 72 h); format: cell-based; conditions: L. donovani promastigotes; for IC50: read-out: IC50 (half maximal inhibitory concentration)
Experimental: Leishmania (Leishmania) donovani (MHOM/ET/1967/HU3) was provided by Oswaldo Cruz Institute Leishmania Collection-Fiocruz-RJ-Brazil. Promastigotes were maintained in vitro at 26 °C in Schneider's medium, pH 7 (20% heat-inactivated fetal bovine serum (FBS), 100 U/mL penicillin, […] streptomycin, and 2% of male urine), as previously described. […] The plates were incubated for 72 h in a biological oxygen demand (B.O.D.) incubator at 26 °C. […] [30].The absorbance was measured using an ELISA plate reader (ELx800, BIOTEK) at 540 nm. Amphotericin® was used as a positive control. The viability of promastigotes incubated in the presence of different concentrations of adducts was determined by comparing to a culture control (L. donovani cultivated in Schneider only). The concentration that caused a 50% reduction in cell viability (IC50) was calculated by Probit analysis (SPSS 13.0 for Windows). Each experiment was performed in duplicate and repeated at least three times.

[2] = tested on: acetic acid-induced abdominal writhes; design: method as in earlier work; conditions: mice, ref 16 (Capim et al., Bioorg. Med. Chem. 2013); cited from earlier work
[3] = tested on: human red blood cells; test: Haemolytic assay towards human red blood cells; format: cell-based; conditions: HC50 red blood cells / IC50 L. donovani promastigotes
Experimental: Briefly, promastigotes in the logarithmic growth phase were cultured in 96-well cell culture plates at 1 × 10^6 parasites per well in […] of Schneider's medium with increasing concentrations of 3.12, 6.25, 12.5, 25, 50, 100, 200, and 400 µg/mL of Morita-Baylis-Hillman adduct. The plates were incubated for 72 h in a biological oxygen demand (B.O.D.) incubator at 26 °C. Cytotoxicity to promastigotes was evaluated by the 3-(4,5-dimethyl-2-thiazole)-2,5-diphenyltetrazolium bromide (MTT) colorimetric assay as described by Valadares et al..The absorbance was measured using an ELISA plate reader (ELx800, BIOTEK) at 540 nm. Amphotericin® was used as a positive control. The viability of promastigotes incubated in the presence of different concentrations of adducts was determined by comparing to a culture control (L. donovani cultivated in Schneider only). The concentration that caused a 50% reduction in cell viability (IC50) was calculated by Probit analysis (SPSS 13.0 for Windows). Each experiment was performed in duplicate and repeated at least three times. Haemolytic assays (HC50 > […]) towards human red blood cells were performed as described in the literature.

[4] = tested on: L. donovani; design: method as in PMID 27520941; conditions: read-out: anti-leishmania activity; cited from earlier work
[5] = tested on: Leishmania; conditions: read-out: IC50 (leishmanicidal activity), cited from earlier work
[6] = tested on: acetic acid-induced abdominal writhes; test: Acetic acid-induced abdominal writhes in mice; format: in vivo; conditions: unpublished results
[7] = Figure 1, hybrid 1 and precursors
[8] = Figure 1, hybrid 5 and precursor eugenol

| Compound | IC50 ([1]; Leishmania donovani) | other results |
| --- | --- | --- |
| 2-(Hydroxy-naphthalen-2-yl-methyl)-acrylic acid 4-chloro-6-naphthalen-1-yl-tetrahydro-pyran -2-ylmethyl ester [8g] |  | IC50 (half maximal inhibitory concentration) [1]: 24.51 ± 7.5 µg/mL; IC50 [1]: 50.4 ± 15.4 µM |
| 2-(Hydroxy-naphthalen-2-yl-methyl)-acrylic acid 6-ethyl-tetrahydro-pyran-2-ylmethyl ester [9g] |  | IC50 (half maximal inhibitory concentration) [1]: 9.73 ± 4.8 µg/mL; IC50 [1]: 27.5 ± 13.6 µM |
| OC[C@H]1C[C@@H](Cl)C[C@@H](c2cccc3ccccc23)O1 (relative stereo) [compound 6, [(±)-(2,4,6-cis)-4-chloro-6-(naphthalen-1-yl)-tetrahydro-2H-pyran-2-yl]methanol] | 47.5 µg/mL and 172 µM | Calculated ED50 [2]: 27.97 μmol·kg^–1 |
| C=C(C(=O)OCC1CC(Cl)CC(c2cccc3ccccc23)O1)C(O)c1ccccc1[N+](=O)[O-] (stereo not shown) [8a, 2-[Hydroxy-(2-nitro-phenyl)-methyl]-acrylic acid 4-chloro-6-naphthalen-1-yl-tetrahydro-pyran-2-ylmethyl ester] | 7.09 µg/mL and 14.7 µM | SIrb (selectivity index on red blood cell) = HC50/IC50 [3]: >56.40 |
| C=C(C(=O)OCC1CC(Cl)CC(c2cccc3ccccc23)O1)C(O)c1cccc([N+](=O)[O-])c1 (stereo not shown) [8b, 2-[Hydroxy-(3-nitro-phenyl)-methyl]-acrylic acid 4-chloro-6-naphthalen-1-yl-tetrahydro-pyran-2-yl-methyl ester] | 8.76 µg/mL and 18.2 µM |  |
| C=C(C(=O)OCC1CC(Cl)CC(c2cccc3ccccc23)O1)C(O)c1ccc([N+](=O)[O-])cc1 (stereo not shown) [8c, 2-[Hydroxy-(4-nitro-phenyl)-methyl]-acrylic acid 4-chloro-6-naphthalen-1-yl-tetrahydro-pyran-2-ylmethyl ester] | 9.05 µg/mL and 18.8 µM |  |
| C=C(C(=O)OCC1CC(Cl)CC(c2cccc3ccccc23)O1)C(O)c1ccccn1 (stereo not shown) [8d, 2-(Hydroxy-pyridin-2-yl-methyl)-acrylic acid 4-chloro-6-naphthalen-1-yl-tetrahydro-pyran-2-yl methyl ester] | 61.9 µg/mL and 142 µM |  |
| C=C(C(=O)OCC1CC(Cl)CC(c2cccc3ccccc23)O1)C(O)c1cccnc1 (stereo not shown) [8e, 2-(Hydroxy-pyridin-3-yl-methyl)-acrylic acid 4-chloro-6-naphthalen-1-yl-tetrahydro-pyran-2-yl methyl ester] | 8.76 µg/mL and 20 µM |  |
| C=C(C(=O)OCC1CC(Cl)CC(c2cccc3ccccc23)O1)C(O)c1ccncc1 (stereo not shown) [8f, 2-(Hydroxy-pyridin-4-yl-methyl)-acrylic acid 4-chloro-6-naphthalen-1-yl-tetrahydro-pyran-2-yl methyl ester] | 8.96 µg/mL and 20.5 µM |  |
| C=C(C(=O)OCC1CC(Cl)CC(c2cccc3ccccc23)O1)C(O)c1ccc(Br)cc1 (stereo not shown) [8h, 2-[(4-Bromo-phenyl)-hydroxy-methyl]-acrylic acid 4-chloro-6-naphthalen-1-yl-tetrahydro-pyran-2-ylmethyl ester] | 17.2 µg/mL and 33.4 µM |  |
| C=C(C(=O)OCC1CCCC(CC)O1)C(O)c1ccccc1[N+](=O)[O-] (stereo not shown) [9a, 2-[Hydroxy-(2-nitro-phenyl)-methyl]-acrylic acid 6-ethyl-tetrahydro-pyran-2-ylmethyl ester] | 5.64 µg/mL and 16.1 µM | SIrb (selectivity index on red blood cell) = HC50/IC50 [3]: >70.94 |
| C=C(C(=O)OCC1CCCC(CC)O1)C(O)c1cccc([N+](=O)[O-])c1 (stereo not shown) [9b, 2-[Hydroxy-(3-nitro-phenyl)-methyl]-acrylic acid 6-ethyl-tetrahydro-pyran-2-ylmethyl ester] | 13.8 µg/mL and 39.4 µM |  |
| C=C(C(=O)OCC1CCCC(CC)O1)C(O)c1ccc([N+](=O)[O-])cc1 (stereo not shown) [9c, 2-[Hydroxy-(4-nitro-phenyl)-methyl]-acrylic acid 6-ethyl-tetrahydro-pyran-2-ylmethyl ester] | 7.03 µg/mL and 20.1 µM | SIrb (selectivity index on red blood cell) = HC50/IC50 [3]: >56.91 |
| C=C(C(=O)OCC1CCCC(CC)O1)C(O)c1ccccn1 (stereo not shown) [9d, 2-(Hydroxy-pyridin-2-yl-methyl)-acrylic acid 6-ethyl-tetrahydro-pyran-2-ylmethyl ester] | 72.3 µg/mL and 240 µM |  |
| C=C(C(=O)OCC1CCCC(CC)O1)C(O)c1cccnc1 (stereo not shown) [9e, 2-(Hydroxy-pyridin-3-yl-methyl)-acrylic acid 6-ethyl-tetrahydro-pyran-2-ylmethyl ester] | 17.7 µg/mL and 57.9 µM |  |
| C=C(C(=O)OCC1CCCC(CC)O1)C(O)c1ccncc1 (stereo not shown) [9f, 2-(Hydroxy-pyridin-4-yl-methyl)-acrylic acid 6-ethyl-tetrahydro-pyran-2-ylmethyl ester] | 57.8 µg/mL and 189 µM |  |
| C=C(C(=O)OCC1CCCC(CC)O1)C(O)c1ccc(Br)cc1 (stereo not shown) [9h, 2-[(4-Bromo-phenyl)-hydroxy-methyl]-acrylic acid 6-ethyl-tetrahydro-pyran-2-ylmethyl ester] | 2.22 µg/mL and 5.81 µM | SIrb (selectivity index on red blood cell) = HC50/IC50 [3]: >180.19 |
| C[C@@H]1[C@H](O)[C@@H](C)/C=C/C=C/C=C/C=C/C=C/C=C/C=C/[C@H](O[C@@H]2O[C@H](C)[C@@H](O)[C@H](N)[C@@H]2O)C[C@@H]2O[C@](O)(C[C@@H](O)C[C@@H](O)[C@H](O)CC[C@@H](O)C[C@@H](O)CC(=O)O[C@H]1C)C[C@H](O)[C@H]2C(=O)O [Amphotericin B, reference compound] | 0.35 µg/mL and 380 nM | SIrb (selectivity index on red blood cell) = HC50/IC50 [3]: 33.05; IC50 [4]: 620 nM |
| C=C(C(=O)Oc1ccccc1C(=O)OC)C(O)c1ccccc1[N+](=O)[O-] (stereo not shown) [compound 1] |  | IC50 [5, 7]: 28.3 µM |
| COC(=O)c1ccccc1O [compound 2, methyl salicylate] |  | IC50 [5, 7]: 1720 µM |
| C=C(C(=O)OC)C(O)c1ccccc1[N+](=O)[O-] (stereo not shown) [compound 3] |  | IC50 [5, 7]: 347 µM |
| C=CCc1ccc(O)c(OC)c1 [compound 4, eugenol] |  | IC50 [5, 8]: 77.5 µM |
| CC[C@@H]1CCC[C@H](CO)O1 [compound 5] |  | IC50 [5, 8]: 4.7 µM |
| CC[C@@H]1CCC[C@H](CO)O1 [compound 7] | > 400 µg/mL and > 2.78 mM | Calculated ED50 [6]: 41.67 μmol·kg^–1 |
